Read-outs that look alike come from different tables or passages of the source.
Assays:
Assay type in all cases: in vivo
[1] = tested on: PAPAVER Nudicaule (Iceland Poppy); assay: Petal abscission delay, auxins/precursors with or without AC; settings: for change in vivo at 10000 µM: Papaver nudicaule; for Total Duration of Flowering (to petal fall): auxin/precursor 10^-2 Molar solution, AC 3 g per hectare equivalent
Method: (§1) Cultural Details: plants were sown in a commercial seed compost and then “pricked out” into a professional grade all-purpose compost in 9 cm pots set out in a randomized block design. Normal daylight plus supplementary lighting to provide a minimum of 10 hours per day. Heating was given to a minimum of 60 degrees Fahrenheit during the day and 40 degrees at night.
Sowing Date: 18 Nov. […] Application Date: 5 Jan.
Measurement Date: 12 Jan.
A number of auxins or auxin precursors were applied, each at 10^−2 Molar solutions. Addition of acetaminophen (AC) was at 3 g per hectare equivalent in each test. Measurement: Delay of first petal fall for each treatment (in days).

[2] = tested on: RADISH—cv F1 Apache; assay: Post-harvest shelf-life, auxins/precursors with or without AC; settings: for change in vivo at 10000 µM: Raphanus sativus; for Shelf-Life Duration (days after harvest): ambient temperature, auxin/precursor 10^-2 Molar, AC 3 g per hectare equivalent, two applications
Method: as §1
Sowing Date: 3 Nov. […] Application Dates: 28 Dec. […] Harvest Date: 11 Jan. […] Measurement: Shelf-Life (days after harvest) at ambient temperature.
A number of auxins or auxin precursors were compared, each at 10^−2 Molar solutions. Addition of acetaminophen (AC) was at 3 g per hectare equivalent in each test.

[3] = tested on: RADISH—cv F1 Apache; assay: Post-harvest shelf-life, AN or AN + AC with additives; settings: for Shelf-Life Duration (days after harvest): AN 1 g per hectare, AC 3 g per hectare, additive rate per ha as in label
Method: (§2) To each were added certain agrochemically acceptable additives, as examples.
as §1
Sowing Date: 28 Jan. 2010, in plugs. Application Date: 5 Mar. 2010.
Measurement Date: 13 Mar. 2010. • Measurement: Shelf-life duration (days).

[4] = tested on: PAPAVER Nudicaule (Iceland Poppy); assay: Petal abscission delay, AN or AN + AC with additives; settings: for Total Duration of Flowering (to petal fall): AN 1 g per hectare, AC 3 g per hectare, additive rate per ha as in label
Method: as §2, §1
Sowing Date: 19 Dec. 2009, in plugs. Application Date: 7 Feb. 2010.
Measurement Date: 12 Feb. 2010, at daily intervals.
Measurement: Delay of first petal-fall for each treatment (in days).

[5] = duration of flowering, read-out: % Improvement over control
[6] = shelf-life, read-out: % Improvement over control
[7] = read-out: % Improvement over control, duration of flowering
[8] = read-out: % Improvement over control, shelf-life
[9] = read-out: % Improvement over control

Compound	change in vivo at 10000 µM [1, 5]	Total Duration of Flowering (to petal fall) [1]	change in vivo at 10000 µM [2, 6]	Shelf-Life Duration (days after harvest) [2]	change in vivo at 10000 µM [1, 7]	change in vivo at 10000 µM [2, 8]	other results
Nc1c(O)cccc1C(=O)O [3-Hydroxyanthranilic acid]	18.4%	11.6 days	15.9%	7.3 days			
CC(=O)Nc1ccc(O)cc1 [AC, N-(4-hydroxypheyl)acetamide, reference compound]	0%	9.9 days	0%	6.2 days			Shelf-Life Duration (days after harvest) [3]: 5.8 days; Total Duration of Flowering (to petal fall) [4]: 8.8 days
NC(=O)Cc1c[nH]c2ccccc12 [Indole-3-acetamide]	21.4%	11.9 days	3.2%	6.5 days			
NCCc1c[nH]c2ccccc12 [Tryptamine]		11.7 days		7.0 days	19.4%	11.1%	
Nc1ccccc1C(=O)[O-].[Na+] [Anthranilic Acid monosodium salt]		11.7 days		7.7 days	19.4%	22.2%	
Nc1ccccc1C(=O)O [Anthranilic acid, anthranilic acid]		12.2 days		8.6 days			Shelf-Life Duration (days after harvest) [3]: 8.5 days; % Improvement over untreated ([3]; shelf-life): +44.1%; % Improvement over control ([1]; duration of flowering): +24.5%; Total Duration of Flowering (to petal fall) [4]: 10.9 days; % Improvement over appropriate control (ie AN or AN + AC) ([4]; duration of flowering): +0.0%; % Improvement over untreated ([4]; duration of flowering): +23.9%; % Improvement over control ([2]; shelf-life): +36.5%
N[C@@H](Cc1c[nH]c2ccccc12)C(=O)O [L-Tryptophan]		10.8 days		6.5 days			change in vivo at 10000 µM [1, 9]: 10.2%; change in vivo at 10000 µM [2, 9]: 3.2%
CC(N)=O [Acetamide]	19.4%	11.7 days	38.1%	8.7 days			
COC(=O)c1ccccc1N [Anthranilic acid methyl ester]		12.1 days		8.7 days	23.5%	38.1%	
